According to patent US20180344726A1, “ABUSE RESISTANT TRANSDERMAL DELIVERY DEVICES AND COMPOSITIONS COMPRISING AN OPIOID AGONIST AND A NON-TRANSDERMALLY DELIVERED N-OXIDE DERIVATIVE OF AN OPIOID ANTAGONIST FOR THE TREATMENT OF PAIN” (priority 2015, published 2018):
Several values for one entry are separate records, joined by “and”; a condition that tells them apart may be missing. Equal entries are not always repeated. Where two headings read alike, the source gives them in different places.

Conditions: +37° C.; for Mean concentration of Naloxone N-oxide in human plasma samples / Mean concentration of Naloxone N-oxide in human whole blood samples: mean of n=3; for Concentrations of Naloxone N-oxide in human plasma samples / Concentrations of Naloxone N-oxide in human whole blood samples: single replicates
Source text: Analytical procedures followed were based on those outlined in the “Guideline on Bioanalytical Method Validation”, EMA, CHMP, EWP, July 2011 and “Reflection paper for laboratories that perform the analysis or evaluation of clinical trial samples, 28 Feb. 2012, EMA/INS/GCP/532137/2010” with reference to the “Guidance for Industry, Bioanalytical Method Validation” recommendations issued by the U.S. Department of Health and Human Services, Food and Drug Administration, Center for Drug Evaluation and Research (CDER), Center for Veterinary Medicine (CVM), May 2001, BP.
Control blank human plasma and blood containing K2EDTA as an anti-coagulant, was obtained from Clinical Trials Laboratory Service or BAS volunteers and was stored at nominally −20° C. and +4° C., respectively, when not in use. The mass spectrometer used was an Applied Biosystems AP15000 with the following settings:
All instrument control, data collection, peak area integration and storage was performed using Analyst (version 1.5.2). Peak areas were then imported into Watson LIMS (version 7.2.0.02) for regression and quantification. The mass spectrometer response (peak area ratio of analyte to internal standard) of each calibration standard was calculated by Watson LIMS and plotted against the nominal (prepared) concentration. A weighted (1/x^2) least squares linear regression analysis was used to calculate an equation of the calibration line.
Any concentrations below this level are reported as below the limit of quantification (BLQ). Samples with initial concentrations above the upper limit of quantification ([…]) were re-injected with a reduced injection volume (alongside QC High with reduced injection volume) and sample concentrations interpolated against a calibration curve injected with normal injection volume.

[1] = spiked with Naloxone-N-oxide 10 ng/mL, 0 minutes
[2] = spiked with Naloxone-N-oxide 10 ng/mL, 10 minutes
[3] = spiked with Naloxone-N-oxide 10 ng/mL, 20 minutes
[4] = spiked with Naloxone-N-oxide 10 ng/mL, 30 minutes
[5] = spiked with Naloxone-N-oxide 10 ng/mL, 45 minutes
[6] = spiked with Naloxone-N-oxide 10 ng/mL, 60 minutes
[7] = spiked with Naloxone-N-oxide 10 ng/mL, 120 minutes
[8] = spiked with Naloxone-N-oxide 50 ng/mL, 0 minutes
[9] = spiked with Naloxone-N-oxide 50 ng/mL, 10 minutes
[10] = spiked with Naloxone-N-oxide 50 ng/mL, 20 minutes
[11] = spiked with Naloxone-N-oxide 50 ng/mL, 30 minutes
[12] = spiked with Naloxone-N-oxide 50 ng/mL, 45 minutes
[13] = spiked with Naloxone-N-oxide 50 ng/mL, 60 minutes
[14] = spiked with Naloxone-N-oxide 50 ng/mL, 120 minutes
[15] = spiked with Naloxone-N-oxide 250 ng/mL, 0 minutes
[16] = spiked with Naloxone-N-oxide 250 ng/mL, 10 minutes
[17] = spiked with Naloxone-N-oxide 250 ng/mL, 20 minutes
[18] = spiked with Naloxone-N-oxide 250 ng/mL, 30 minutes
[19] = spiked with Naloxone-N-oxide 250 ng/mL, 45 minutes
[20] = spiked with Naloxone-N-oxide 250 ng/mL, 60 minutes
[21] = spiked with Naloxone-N-oxide 250 ng/mL, 120 minutes

C=CC[N+]1([O-])CC[C@]23c4c5ccc(O)c4O[C@H]2C(=O)CC[C@@]3(O)[C@H]1C5 (some centres unmarked) [Naloxone N-oxide]
Conversion of Naloxone-N-oxide to Naloxone in plasma (in words) (2 hour time course): small, but insignificant amount of conversion | Conversion to Naloxone in whole blood (in words) (2 hour time course): rapidly converts to Naloxone in whole blood | Mean concentration of Naloxone N-oxide in human plasma samples [1]: 10.0 ng/mL | Mean concentration of Naloxone N-oxide in human whole blood samples [1]: 7.45 ng/mL | Concentrations of Naloxone N-oxide in human plasma samples [1]: 9.93 ng/mL and 9.87 ng/mL and 10.2 ng/mL | Concentrations of Naloxone N-oxide in human whole blood samples [1]: 7.95 ng/mL and 7.69 ng/mL and 6.70 ng/mL | Mean concentration of Naloxone N-oxide in human plasma samples [2]: 10.2 ng/mL | Mean concentration of Naloxone N-oxide in human whole blood samples [2]: 6.02 ng/mL | Concentrations of Naloxone N-oxide in human plasma samples [2]: 9.61 ng/mL and 10.4 ng/mL and 10.7 ng/mL | Concentrations of Naloxone N-oxide in human whole blood samples [2]: 5.94 ng/mL and 6.11 ng/mL and 6.01 ng/mL | Mean concentration of Naloxone N-oxide in human plasma samples [3]: 10.3 ng/mL | Mean concentration of Naloxone N-oxide in human whole blood samples [3]: 4.53 ng/mL | Concentrations of Naloxone N-oxide in human plasma samples [3]: 10.6 ng/mL and 10.3 ng/mL and 9.93 ng/mL | Concentrations of Naloxone N-oxide in human whole blood samples [3]: 4.70 ng/mL and 4.15 ng/mL and 4.75 ng/mL | Mean concentration of Naloxone N-oxide in human plasma samples [4]: 9.96 ng/mL | Mean concentration of Naloxone N-oxide in human whole blood samples [4]: 3.13 ng/mL | Concentrations of Naloxone N-oxide in human plasma samples [4]: 9.37 ng/mL and 10.1 ng/mL and 10.4 ng/mL | Concentrations of Naloxone N-oxide in human whole blood samples [4]: 2.77 ng/mL and 3.14 ng/mL and 3.47 ng/mL | Mean concentration of Naloxone N-oxide in human plasma samples [5]: 10.4 ng/mL | Mean concentration of Naloxone N-oxide in human whole blood samples [5]: 2.15 ng/mL | Concentrations of Naloxone N-oxide in human plasma samples [5]: 10.7 ng/mL and 10.0 ng/mL and 10.4 ng/mL | Concentrations of Naloxone N-oxide in human whole blood samples [5]: 2.18 ng/mL and 2.27 ng/mL and 2.01 ng/mL | Mean concentration of Naloxone N-oxide in human plasma samples [6]: 10.3 ng/mL | Mean concentration of Naloxone N-oxide in human whole blood samples [6]: 1.87 ng/mL | Concentrations of Naloxone N-oxide in human plasma samples [6]: 10.3 ng/mL and 10.6 ng/mL and 10.1 ng/mL | Concentrations of Naloxone N-oxide in human whole blood samples [6]: 1.79 ng/mL and 1.81 ng/mL and 2.02 ng/mL | Mean concentration of Naloxone N-oxide in human plasma samples [7]: 10.3 ng/mL | Mean concentration of Naloxone N-oxide in human whole blood samples [7]: 1.51 ng/mL | Concentrations of Naloxone N-oxide in human plasma samples [7]: 10.4 ng/mL (2×) and 10.1 ng/mL | Concentrations of Naloxone N-oxide in human whole blood samples [7]: 1.55 ng/mL and 1.57 ng/mL and 1.41 ng/mL | Mean concentration of Naloxone N-oxide in human plasma samples [8]: 44.9 ng/mL | Mean concentration of Naloxone N-oxide in human whole blood samples [8]: 45.4 ng/mL | Concentrations of Naloxone N-oxide in human plasma samples [8]: 48.5 ng/mL and 45.6 ng/mL and 40.5 ng/mL | Concentrations of Naloxone N-oxide in human whole blood samples [8]: 48.9 ng/mL and 41.3 ng/mL and 46.0 ng/mL | Mean concentration of Naloxone N-oxide in human plasma samples [9]: 46.0 ng/mL | Mean concentration of Naloxone N-oxide in human whole blood samples [9]: 25.9 ng/mL | Concentrations of Naloxone N-oxide in human plasma samples [9]: 43.4 ng/mL and 48.7 ng/mL and 45.8 ng/mL | Concentrations of Naloxone N-oxide in human whole blood samples [9]: 26.0 ng/mL and 25.0 ng/mL and 26.8 ng/mL | Mean concentration of Naloxone N-oxide in human plasma samples [10]: 48.4 ng/mL | Mean concentration of Naloxone N-oxide in human whole blood samples [10]: 20.4 ng/mL | Concentrations of Naloxone N-oxide in human plasma samples [10]: 50.1 ng/mL and 47.1 ng/mL and 48.1 ng/mL | Concentrations of Naloxone N-oxide in human whole blood samples [10]: 20.3 ng/mL and 21.1 ng/mL and 19.9 ng/mL | Mean concentration of Naloxone N-oxide in human plasma samples [11]: 46.3 ng/mL | Mean concentration of Naloxone N-oxide in human whole blood samples [11]: 16.0 ng/mL | Concentrations of Naloxone N-oxide in human plasma samples [11]: 46.9 ng/mL and 44.1 ng/mL and 47.9 ng/mL | Concentrations of Naloxone N-oxide in human whole blood samples [11]: 15.9 ng/mL and 15.2 ng/mL and 16.9 ng/mL | Mean concentration of Naloxone N-oxide in human plasma samples [12]: 47.4 ng/mL | Mean concentration of Naloxone N-oxide in human whole blood samples [12]: 14.4 ng/mL | Concentrations of Naloxone N-oxide in human plasma samples [12]: 47.6 ng/mL and 49.1 ng/mL and 45.4 ng/mL | Concentrations of Naloxone N-oxide in human whole blood samples [12]: 14.1 ng/mL (2×) and 15.1 ng/mL | Mean concentration of Naloxone N-oxide in human plasma samples [13]: 48.0 ng/mL | Mean concentration of Naloxone N-oxide in human whole blood samples [13]: 10.4 ng/mL | Concentrations of Naloxone N-oxide in human plasma samples [13]: 50.0 ng/mL and 46.0 ng/mL and 48.1 ng/mL | Concentrations of Naloxone N-oxide in human whole blood samples [13]: 10.7 ng/mL and 10.6 ng/mL and 10.0 ng/mL | Mean concentration of Naloxone N-oxide in human plasma samples [14]: 46.1 ng/mL | Mean concentration of Naloxone N-oxide in human whole blood samples [14]: 4.24 ng/mL | Concentrations of Naloxone N-oxide in human plasma samples [14]: 47.6 ng/mL and 43.9 ng/mL and 46.8 ng/mL | Concentrations of Naloxone N-oxide in human whole blood samples [14]: 3.99 ng/mL and 4.51 ng/mL and 4.22 ng/mL | Mean concentration of Naloxone N-oxide in human plasma samples [15]: 233 ng/mL | Mean concentration of Naloxone N-oxide in human whole blood samples [15]: 255 ng/mL | Concentrations of Naloxone N-oxide in human plasma samples [15]: 236 ng/mL and 233 ng/mL and 229 ng/mL | Concentrations of Naloxone N-oxide in human whole blood samples [15]: 245 ng/mL and 254 ng/mL and 265 ng/mL | Mean concentration of Naloxone N-oxide in human plasma samples [16]: 225 ng/mL | Mean concentration of Naloxone N-oxide in human whole blood samples [16]: 141 ng/mL | Concentrations of Naloxone N-oxide in human plasma samples [16]: 218 ng/mL and 234 ng/mL and 223 ng/mL | Concentrations of Naloxone N-oxide in human whole blood samples [16]: 135 ng/mL and 143 ng/mL and 144 ng/mL | Mean concentration of Naloxone N-oxide in human plasma samples [17]: 232 ng/mL | Mean concentration of Naloxone N-oxide in human whole blood samples [17]: 111 ng/mL | Concentrations of Naloxone N-oxide in human plasma samples [17]: 228 ng/mL and 241 ng/mL and 226 ng/mL | Concentrations of Naloxone N-oxide in human whole blood samples [17]: 107 ng/mL and 111 ng/mL and 115 ng/mL | Mean concentration of Naloxone N-oxide in human plasma samples [18]: 229 ng/mL | Mean concentration of Naloxone N-oxide in human whole blood samples [18]: 97.6 ng/mL | Concentrations of Naloxone N-oxide in human plasma samples [18]: 231 ng/mL and 229 ng/mL and 226 ng/mL | Concentrations of Naloxone N-oxide in human whole blood samples [18]: 99.0 ng/mL and 96.8 ng/mL and 97.1 ng/mL | Mean concentration of Naloxone N-oxide in human plasma samples [19]: 228 ng/mL | Mean concentration of Naloxone N-oxide in human whole blood samples [19]: 81.4 ng/mL | Concentrations of Naloxone N-oxide in human plasma samples [19]: 225 ng/mL and 228 ng/mL and 230 ng/mL | Concentrations of Naloxone N-oxide in human whole blood samples [19]: 78.2 ng/mL and 80.8 ng/mL and 85.3 ng/mL | Mean concentration of Naloxone N-oxide in human plasma samples [20]: 231 ng/mL | Mean concentration of Naloxone N-oxide in human whole blood samples [20]: 69.0 ng/mL | Concentrations of Naloxone N-oxide in human plasma samples [20]: 242 ng/mL and 229 ng/mL and 221 ng/mL | Concentrations of Naloxone N-oxide in human whole blood samples [20]: 73.9 ng/mL and 65.5 ng/mL and 67.7 ng/mL | Mean concentration of Naloxone N-oxide in human plasma samples [21]: 225 ng/mL | Mean concentration of Naloxone N-oxide in human whole blood samples [21]: 49.3 ng/mL | Concentrations of Naloxone N-oxide in human plasma samples [21]: 239 ng/mL and 226 ng/mL and 211 ng/mL | Concentrations of Naloxone N-oxide in human whole blood samples [21]: 46.8 ng/mL and 52.8 ng/mL and 48.3 ng/mL
